Assay results reported in ChEMBL document CHEMBL1137909, “Synthesis and in vitro evaluation of (S)-2-([11C]methoxy)-4-[3-methyl-1-(2-piperidine-1-yl-phenyl)-butyl-carbamoyl]-benzoic acid ([11C]methoxy-repaglinide): a potential beta-cell imaging agent” (Bioorg Med Chem Lett, 2004).

Columns and labels:
Rattus norvegicus [1] = organism: Rattus norvegicus; assay: In vitro ability to stimulate insulin was determined at (15 mM glucose); assay type: functional
Rattus norvegicus [2] = organism: Rattus norvegicus; assay: In vitro ability to stimulate insulin was determined at (5 mM glucose+0.1 uM compound); assay type: functional
[3] = target: T1, ATP-binding cassette sub-family C member 8 (Homo sapiens, UniProt Q09428); assay: Displacement of [3H]glibenclamide from COS-1 cells expressing Sulfonylurea receptor 1 (SUR-1); assay type: cell-based
[4] = target: T1, ATP-binding cassette sub-family C member 8; assay: In vitro displacement of [3H]glibenclamide (IC50=0.61) from COS-1 cells expressing Sulfonylurea receptor 1 (SUR-1); assay type: cell-based
Rattus norvegicus [5] = organism: Rattus norvegicus; assay: Percent stimulation index to stimulate insulin was determined; assay type: functional
Rattus norvegicus [6] = organism: Rattus norvegicus; assay: Percent relative stimulation index to stimulate insulin was determined; assay type: functional

T1 sequence (Q09428 whole entry): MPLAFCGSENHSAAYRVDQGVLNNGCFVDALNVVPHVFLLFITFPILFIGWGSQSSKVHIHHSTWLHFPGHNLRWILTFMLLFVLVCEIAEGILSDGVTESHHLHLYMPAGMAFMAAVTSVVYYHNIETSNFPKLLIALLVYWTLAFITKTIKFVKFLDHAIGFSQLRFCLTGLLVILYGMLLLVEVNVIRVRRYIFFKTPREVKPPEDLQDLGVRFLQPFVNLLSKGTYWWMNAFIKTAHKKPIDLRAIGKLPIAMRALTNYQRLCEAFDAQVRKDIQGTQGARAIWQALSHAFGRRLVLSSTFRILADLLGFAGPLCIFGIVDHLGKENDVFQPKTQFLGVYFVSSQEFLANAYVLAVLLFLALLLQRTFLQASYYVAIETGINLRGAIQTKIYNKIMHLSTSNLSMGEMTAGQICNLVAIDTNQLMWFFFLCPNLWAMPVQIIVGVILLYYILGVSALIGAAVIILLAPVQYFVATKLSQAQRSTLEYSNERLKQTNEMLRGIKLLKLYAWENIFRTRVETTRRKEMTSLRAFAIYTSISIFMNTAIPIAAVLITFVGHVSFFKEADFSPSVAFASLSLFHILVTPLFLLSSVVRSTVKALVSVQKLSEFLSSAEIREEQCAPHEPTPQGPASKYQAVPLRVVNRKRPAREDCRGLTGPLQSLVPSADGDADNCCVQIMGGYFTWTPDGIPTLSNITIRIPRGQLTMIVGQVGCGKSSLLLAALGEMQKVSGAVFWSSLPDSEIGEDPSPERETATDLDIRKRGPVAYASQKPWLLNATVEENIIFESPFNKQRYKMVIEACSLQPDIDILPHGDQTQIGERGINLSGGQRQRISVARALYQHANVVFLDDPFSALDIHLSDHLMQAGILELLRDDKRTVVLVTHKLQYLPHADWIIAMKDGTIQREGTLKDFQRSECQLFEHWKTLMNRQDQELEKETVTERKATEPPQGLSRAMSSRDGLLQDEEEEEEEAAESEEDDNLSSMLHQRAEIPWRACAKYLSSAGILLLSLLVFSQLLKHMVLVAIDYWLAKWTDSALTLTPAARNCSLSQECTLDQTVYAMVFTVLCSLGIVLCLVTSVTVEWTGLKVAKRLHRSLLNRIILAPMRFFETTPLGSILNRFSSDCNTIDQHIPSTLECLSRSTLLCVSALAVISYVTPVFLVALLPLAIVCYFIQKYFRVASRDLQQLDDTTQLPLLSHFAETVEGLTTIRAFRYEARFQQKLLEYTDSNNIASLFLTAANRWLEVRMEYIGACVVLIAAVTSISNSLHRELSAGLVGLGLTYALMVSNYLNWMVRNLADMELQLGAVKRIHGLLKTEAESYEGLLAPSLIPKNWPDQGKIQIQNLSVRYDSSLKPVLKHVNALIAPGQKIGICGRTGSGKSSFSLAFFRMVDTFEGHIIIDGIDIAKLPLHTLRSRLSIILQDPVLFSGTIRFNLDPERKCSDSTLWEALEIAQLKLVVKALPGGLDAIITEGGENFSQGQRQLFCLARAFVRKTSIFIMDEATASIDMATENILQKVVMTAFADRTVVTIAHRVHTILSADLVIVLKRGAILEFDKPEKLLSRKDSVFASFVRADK

| SMILES | Insulin release (Rattus norvegicus [1]) | Insulin release (Rattus norvegicus [2]) | Kd [3] | IC50 [4] | Stimulation index (Rattus norvegicus [5]) | Relative stimulation index (Rattus norvegicus [6]) |
| --- | --- | --- | --- | --- | --- | --- |
| COc1cc(CC(=O)N[C@@H](CC(C)C)c2ccccc2N2CCCCC2)ccc1C(=O)O | 4 ng/islet/1h | 2 ng/islet/1h | 83 nM | 163 nM | 2 fold | 64% |
| CC(C)C[C@H](NC(=O)Cc1ccc(C(=O)O)c(OCCF)c1)c1ccccc1N1CCCCC1 |  |  | 134 nM | 281 nM |  |  |
| CCOc1cc(CC(=O)N[C@@H](CC(C)C)c2ccccc2N2CCCCC2)ccc1C(=O)O [REPAGLINIDE] | 4 ng/islet/1h | 2.1 ng/islet/1h | 50 nM | 106 nM | 1.9 fold | 63% |
